From publication PMC6006164, “Natural cyclopeptide RA-V inhibits the NF-κB signaling pathway by targeting TAK1” (Cell Death & Disease, 2018) come the findings set out here.

Assay [1] relates to NF-κB signaling pathway. The assay is described as follows: NF-κB-dependent luciferase reporter (5×κB-luciferase/pTK-Renilla), TNF-α-induced, HeLa cells. It counts as cell-based. Conditions: RA-V 6 h, then 10 ng/mL TNF-α 2 h, three independent experiments. As for the experimental part: (§1) Fig. 1 RA-V inhibits TNF-α- and LPS-induced activation of NF-κB. a Chemical structure of RA-V. b RA-V inhibited the NF-κB signaling pathway in a dose-dependent manner. HEK293T or HeLa cells were transfected with the 5 × κB-luciferase and pTK-Renilla reporters. Twenty-four hours after transfection, the cells were incubated with various concentrations of RA-V for 6 h, and then treated with 10 ng/mL TNF-α for 2 h before the luciferase activity assay and MTT assay. c RA-V reduced TNF-α-induced expression of NF-κB target genes. HEK293T or HeLa cells were treated with various concentrations of RA-V for 24 h and stimulated with 10 ng/mL TNF-α for 2 h. The expression of the NF-κB target genes, IL-8, MCP-1, and E-selectin was measured by quantitative RT-PCR and normalized to GADPH expression. d RA-V inhibited TNF-α-induced p65 phosphorylation, IκBα phosphorylation and IκBα degradation. HEK293T or HeLa cells were incubated with various concentrations of RA-V for 24 h and treated with 10 ng/mL TNF-α for 10 min. The cell lysates were prepared and subjected to western blot analysis with the indicated antibodies. e RA-V inhibited TNF-α-induced IL-8 production. […] The expression of IL-6 was measured. h RA-V inhibited LPS-induced p65 phosphorylation, IκBα phosphorylation. […] The protein expression was measured. i RA-V inhibited LPS-induced IL-6 production. […] The expression of IL-6 was measured. […]

For assay [2], the system named is NF-κB target genes, IL-8, MCP-1, and E-selectin. The assay is described as follows: Quantitative RT-PCR of TNF-α-induced NF-κB target genes. The assay is classed as cell-based, Homo sapiens. Conditions: HEK293T or HeLa; RA-V 24 h, 10 ng/mL TNF-α 2 h; normalized to GADPH. As for the experimental part: Fig. 1 RA-V inhibits TNF-α- and LPS-induced activation of NF-κB. a Chemical structure of RA-V. b RA-V inhibited the NF-κB signaling pathway in a dose-dependent manner. HEK293T or HeLa cells were transfected with the 5 × κB-luciferase and pTK-Renilla reporters. Twenty-four hours after transfection, the cells were incubated with various concentrations of RA-V for 6 h, and then treated with 10 ng/mL TNF-α for 2 h before the luciferase activity assay and MTT assay. c RA-V reduced TNF-α-induced expression of NF-κB target genes. HEK293T or HeLa cells were treated with various concentrations of RA-V for 24 h and stimulated with 10 ng/mL TNF-α for 2 h. The expression of the NF-κB target genes, IL-8, MCP-1, and E-selectin was measured by quantitative RT-PCR and normalized to GADPH expression. d RA-V inhibited TNF-α-induced p65 phosphorylation, IκBα phosphorylation and IκBα degradation. […] The expression of IL-6 was measured. h RA-V inhibited LPS-induced p65 phosphorylation, IκBα phosphorylation. […] The protein expression was measured. i RA-V inhibited LPS-induced IL-6 production. […] The expression of IL-6 was measured.
The total RNA was extracted from the indicated cells using TRIzol reagent (Invitrogen) according to the manufacturer’s instructions and then was reverse transcribed. The RNA concentrations were measured spectrophotometrically with a BioPhotometer (Eppendorf). […]

Assay [3] has as its system p65 phosphorylation, IκBα phosphorylation and IκBα degradation. The assay is described as follows: Western blot of TNF-α-induced NF-κB-associated proteins. It counts as cell-based. The conditions noted are these: HEK293T or HeLa; RA-V 24 h, 10 ng/mL TNF-α 10 min. The protocol: as §1
On the technique in general: In western blotting, separated proteins are transferred to a membrane and probed.

Assay [4] concerns the target T1, TAK1 (Homo sapiens, UniProt O43318).
T1 construct: expressed in transfected cells; host or cells: HEK293T
T1 sequence (O43318 1-579 isoform O43318-2): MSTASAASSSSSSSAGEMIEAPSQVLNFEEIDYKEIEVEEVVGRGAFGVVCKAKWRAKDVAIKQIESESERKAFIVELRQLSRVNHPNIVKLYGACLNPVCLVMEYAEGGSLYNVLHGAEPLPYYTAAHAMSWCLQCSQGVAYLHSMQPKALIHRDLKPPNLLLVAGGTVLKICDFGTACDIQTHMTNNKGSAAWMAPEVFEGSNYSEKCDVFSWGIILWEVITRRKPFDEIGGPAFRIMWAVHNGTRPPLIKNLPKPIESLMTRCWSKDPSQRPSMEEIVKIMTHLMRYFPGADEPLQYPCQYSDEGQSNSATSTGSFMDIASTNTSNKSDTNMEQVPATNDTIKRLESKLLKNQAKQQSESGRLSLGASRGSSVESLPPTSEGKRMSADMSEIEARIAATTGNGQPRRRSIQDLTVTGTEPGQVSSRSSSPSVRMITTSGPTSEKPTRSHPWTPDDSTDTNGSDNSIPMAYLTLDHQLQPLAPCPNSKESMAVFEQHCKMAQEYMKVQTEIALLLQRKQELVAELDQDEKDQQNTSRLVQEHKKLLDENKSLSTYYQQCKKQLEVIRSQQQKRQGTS
The assay is described as follows: Streptavidin agarose pull-down with biotin-tagged probe CB12. It counts as binding. Conditions: lysates of HEK293T transfected with TAK1; RA-V in 10-fold excess.
Protocol: HEK293T cells were transfected with TAK1 for 24 h, then the cell lysates were incubated with biotin or CB12 followed by streptavidin agarose pull-down. […] HEK293T cells were transfected with the indicated plasmids for 24 h. The cell lysates were pulled down with streptavidin agarose and then immunoblotted with HA or Flag antibody. Each experiment was repeated at least three times
HEK293T cells were transfected with TAK1-N or TAK1-C for 24 h. The cells lysates were incubated with CB12 or biotin and precipitated with streptavidin-coated sepharose and were analyzed by immunoblotting with Flag antibody. b The model for RA-V binding to the crystal structure of the TAK1–TAB1 fusion protein (PDB 4GS6). […] HEK293T cells were transfected with TAK1 for 24 h, and then the cell lysates were incubated with biotin or CB12 before precipitation with streptavidin agarose. […] HeLa cells were incubated with various concentrations of RA-V for 12 h and then treated with 10 ng/mL TNF-α for 10 min. The cell lysates were prepared and western blotted with the indicated antibodies. Each experiment was repeated at least three times
HEK293T cells were harvested and lysed in RIPA buffer with protease inhibitors. […] The samples were separated by SDS-PAGE, and the bound proteins were detected using the indicated antibodies.

RA-V: in assay [1], the IC50 worked out at 171 nM. The “TNF-α-induced expression of IL-8, MCP-1, and E-selectin” value in assay [2] was “dose-dependently decreased”. Further, the “TNF-α-induced IκBα phosphorylation, IκBα degradation, and p65 phosphorylation” value in assay [3] is “dose-dependent inhibitory effects”. For the same substance, the “competition with the CB12–TAK1 interaction (pull-down)” value in assay [4] was “competed away”.

What is called IC50 is the midpoint of a concentration-inhibition curve. Low values mean inhibition by little substance, high ones a need for much substance.
